Measurements from patent US5391800A, “Method for inhibition of cell motility by sphingosine-1-phosphate, its derivatives and mimetics and method of synthesizing sphingosine-1-phosphate and its derivatives” (The Biomembrane Institute, priority 1993, dated 1995).

Assays:
[1] = tested on: B16/F1 melanoma cells; experiment: Chemoinvasion of B16/F1 cells through thick MATRI-GEL layer on transwell filter; assay type: cell-based, mouse; conditions: percent relative to control; mean ± S.E., n = 3 or 4; concentration not given; 4200 min
Protocol: (§1) The assays for determining chemotactic cell motility and chemoinvasion can be performed using transwell plates with a polycarbonate membrane filter (pore size 8 μm) (Costar Scientific, Cambridge, Mass.). Aliguots, e.g., 50 μl, of an aqueous solution of MATRI-GEL (Collaborative Research, Bedford, Mass.) containing SPN-1-P or other inhibitor (e.g., 20 μg/ml for chemotactic motility assay or 200 μg/ml for chemoinvasion assay), is added to each well and dried overnight. The filter is then fitted onto the lower chamber plate. The lower chamber can contain conditioned medium (CM) (i.e., medium used for splenic stromal cell culture, and containing motility factor secreted by these cells), e.g., 0.6 ml, with or without SPN-1-P or other inhibitor. To the upper chamber is added, e.g., about 100 μl, of cell suspension (5×10^4 cells/ml for invasion assay, 5×10^5 cells/ml for motility assay), which is then incubated in 5% CO2 at 37° C. for 70-72 hours (invasion assay) or 20 hours (motility assay). After incubation, cells remaining in the upper chamber are wiped off with a cotton swab, and cells which had migrated to the lower chamber side of the filter are fixed in methanol for 30 seconds and stained with 0.05% toluidine blue. The filter is removed, the stain is solubilized in 10% acetic acid (e.g., 0.1 ml for invasion assay, 0.5 ml for motility assay), and color intensity (optical density) is quantitated by ELISA reading at 630 nm. Using SPN-1-P, a linear relationship was observed between cell number and toluidine blue optical density (FIG. 7).
(§2) Assays were performed using transwell plates with polycarbonate membrane filters (pore size 8 μm) (Costar Scientific, Cambridge, Mass.). 50 μl aliguots of an aqueous solution of MATRI-GEL (Collaborative Research, Bedford, Mass.) containing 20 μg/ml (for chemotactic motility assay) or 200 μg/ml (for chemoinvasion assay) were added to each well and dried overnight. The filter was fitted onto the lower chamber plate. The lower chamber contained 0.6 ml conditioned medium (CM) (i.e., medium used for splenic stromal cell culture, and containing motility factor secreted by these cells) with or without the suspected inhibitor. To the upper chamber was added 100 μl of cell suspension (5×10^4 cells/ml for invasion assay, 5×10^5 cells/ml for motility assay), which was then incubated in 5% CO2 at 37° C. for 70-72 hours (invasion assay) or 20 hours (motility assay). After incubation, cells remaining in the upper chamber were wiped off with a cotton swab, and cells which had migrated to the lower chamber side of the filter were fixed in methanol for 30 seconds and stained with 0.05% toluidine blue. The filter was removed, the stain was solubilized in 10% acetic acid (0.1 ml for invasion assay, 0.5 ml for motility assay), and color intensity (optical density) was quantitated by ELISA reading at 630 nm. A linear relationship was observed between cell number and toluidine blue optical density (FIG. 7.).
Chemoinvasion was measured by the ability of tumor cells in CM (as described above) to migrate through a thick layer of MATRI-GEL during a prolonged incubation period (70 hours). This property is distinct from chemotactic cell motility, which involves a much shorter incubation period (20 hours) and a thin layer of MATRI-GEL. For the chemoinvasion assay, 10 μg of MATRI-GEL was applied to a polycarbonate transwell filter and migration was observed following 70 hours incubation (based on results shown in FIG. 8).

[2] = tested on: B16/F1 melanoma cells; experiment: Chemotactic motility of B16/F1 cells through MATRI-GEL-coated transwell filter; assay type: cell-based, mouse; conditions: percent relative to control; mean ± S.E., n = 3 or 4; concentration not given
Protocol: as §1, §2
In experiments with different quantities of MATRI-GEL, cell migration through transwell filter was maximal with 1 μg/well was applied, and when CM was used (FIG. 8). Therefore, chemotactic cell motility, as affected by various SPN derivatives, was assayed under these conditions.
*Mean ± S.E. of percent relative to control (n = 4). Actual O.D. value
and 0.147 (HT1080). 6 × 10^4 cells were placed on a transwell
filter coated with 1.0 μg MATRIGEL in the upper chamber, and cultured
for 18 hours in the presence of CM and SPN1-P in the lower chamber.

[3] = tested on: PKC of B16/F1 melanoma cells; experiment: PKC activity of B16/F1 melanoma cells (32P incorporation into histone IIIS); assay type: biochemical, mouse; conditions: concentration not given
Protocol: Effects of SPN derivatives on protein kinase C activity and cell growth of B16/F1 cells was also investigated. […] Toxicity of these compounds to B16/F1 cells and human neutrophils was also examined using a trypan blue exclusion assay after 1 hour incubation with the compounds.
*Mean ± S.E. (n = 3). For controls (defined as 100%), PKC activity was
33225 cpm per tube per 20 min, as measured by ^32 P incorporation int

[4] = tested on: B16/F1 melanoma cells; experiment: Growth of B16/F1 melanoma cells (cell count after 48 hr); assay type: cell-based, mouse; conditions: Mus musculus, B16-F1; 10 μM; 48 hr; control = 100%; mean ± S.E., n = 3
Protocol: *Mean ± S.E. (n = 3). For controls (defined as 100%), cell number was
10^5 cells were seeded and
cultured on a 35 mm plastic dish in Dulbecco's modified Eagle's medium
containing 2% fetal bovine serum in the presence or absence of SPN
derivatives. 48 hr later, cells were counted.

[5] = tested on: human neutrophils; experiment: Phagokinetic activity of human neutrophils on gold sol-coated plates; assay type: cell-based; conditions: 4.5 μM; 2 hours; mean ± S.D.; control 6.3 ± 2.3
Protocol: Phagokinetic activity is measured by the ability of cells to ingest foreign particles while moving. Cell motility can be estimated as the area of a phagokinetic track on gold sol particle-coated plates as previously described {Albrecht-Buehler, Cell, 11:395 (1977)}. A uniform coating of gold particles is prepared on glass coverslips precoated with bovine serum albumin, and coverslips are rinsed repeatedly to remove non-adhering or loosely-adhering gold particles. Freshly-prepared neutrophils or tumor cells detached from culture are placed in a Petri dish containing the gold sol-coated plate, and incubated for about 2 hours (for human neutrophils) or about 18 hours (for tumor cells). The coverslips are fixed for 1 hour in a 4% formaldehyde solution in phosphate-buffered saline (PBS) and mounted on microscope slides. The phagokinetic tracks are observed on a television connected to a light microscope (Nikon, Tokyo, Japan). Tracks on the television are transferred to translucent sheets, which are then photocopied. Phagokinetic activity is quantitated by cutting and weighing the swept area in the copy.
Cell motility was estimated as the area of phagokinetic track on gold sol particle-coated plates as previously described {Albrecht-Buehler, Cell, 11:395 (1977)}. A uniform coating of gold particles was prepared on glass coverslips precoated with bovine serum albumin, and the coverslips were rinsed repeatedly to remove non-adhering or loosely-adhering gold particles. Freshly-prepared neutrophils or tumor cells detached from culture were placed in a Petri dish containing the gold sol-coated plate, and incubated for 2 hours (for human neutrophils) or 18 hours (for tumor cells). The coverslips were fixed for 1 hour in 4% formaldehyde solution in phosphate-buffered saline (PBS) and mounted on microscope slides. The phagokinetic tracks were observed on a television connected to a light microscope (Nikon, Tokyo, Japan). Tracks on the television were transferred to translucent sheets, which were then photocopied. Phagokinetic activity was quantitated by cutting and weighing the swept area in the copy.
**mean ± S.D. Freshlyprepared neutrophils (1 × 10^4
cell/plate) were seeded on a coverslip precoated with gold sol particles
in the presence or absence of test compound. 2 hours later, incubation wa
terminated by adding 200 μl of 10% formaldehyde and the cleared area
was estimated as described in the text.

Row | Compound | % invasion [1] | % motility [2] | PKC inhibition [3] | activity at 10 µM [4] | Cleared area [5]
1 | sphingomyelin | 138 ± 18% | 82 ± 11% | – | – | –
2 | CCCCCCCCCCCCC/C=C/[C@@H](O)[C@H](CO)N(C)C [DMS, N,N-dimethylsphingosine] | – | – | in striking contrast to DMS and TMS, SPN-1-P does not inhibit PKC | – | –
3 | CCCCCCCCCCCCC/C=C/[C@@H](O)[C@H](CO)NC(C)=O [N-acetyl-SPN] | 96 ± 14% | 99 ± 16% | – | 102 ± 4% | –
4 | NCCO [ethanolamine] | 140 ± 41% | 85 ± 13% | – | – | –
5 | phosphatidylethanolamine | 104 ± 37% | 107 ± 18% | – | – | –
6 | NCCOP(=O)(O)O [phosphoethanolamine] | 160 ± 57% | 86 ± 20% | – | – | 5.9 ± 2.5 × 10^3 μm^2
7 | ceramide | – | – | – | – | 5.7 ± 3.0 × 10^3 μm^2
8 | ceramide monohexoside [CMH] | 178 ± 70% | 162 ± 29% | – | – | –
